Experimental data reported in patent US20160166572A1, “BENEFICIAL EFFECTS OF Lp-PLA2 INHIBITORS IN TREATMENT OF DIABETIC RETINOPATHY AND AGE-RELATED MACULAR DEGENERATION” (Rowan University, priority 2014, published 2016).

Experiments:
porcine retina = test: Cell number in retinal GCL and INL by counting DAPI-positive nuclei, DMHC pigs; assay type: in vivo, pig; details: Darapladib 10 mg/kg/d orally, 24 weeks, FIG. 3D-E
Method: Briefly, after induction of diabetes by a single injection of Streptozotocin, animals were fed a high cholesterol diet. After a month of DMHC induction and acclimation, animals were randomly segregated to untreated DMHC and Darapladib-treated DMHC groups. Darapladib-treated pigs received 10 mg/kg/d of Darapladib orally. Three of the pigs were spared from DMHC induction and served as age-matched, non-DMHC normal controls. Twenty four weeks after acclimation, animals were euthanized and their brains and eyes were immediately removed. Brains were divided anteroposteriorly into anterior, middle and posterior regions. For each of these brain regions, 2-3 tissue blocks were generated for routine tissue fixation (10% formalin) or freezing and histological processing. The anterior cortical region comprised of anterior ⅔ of frontal lobe and anterior ⅓ of temporal lobe. […] Cells positive for GFAP were counted throughout the whole thickness of the retina, and then quantified using ImagePro7.0 (Media Cybernetics, Silver Spring, Md.). Briefly, a 300×300 pixel square area was randomly made in each retinal section in three contiguous locations across the retina and the positive GFAP area was determined per total area using a fixed threshold. […] Cell number was determined by counting the DAPI-positive nuclei in a fixed area. […]

[1] = test system: ganglion cells in the GCL; test: Extravasated IgG in retina (anti-swine IgG IHC) as evidence of BRB compromise, DMHC pigs; assay type: in vivo, pig; details: Darapladib 10 mg/kg/d orally, 24 weeks
Method: Briefly, after induction of diabetes by a single injection of Streptozotocin, animals were fed a high cholesterol diet. After a month of DMHC induction and acclimation, animals were randomly segregated to untreated DMHC and Darapladib-treated DMHC groups. Darapladib-treated pigs received 10 mg/kg/d of Darapladib orally. Three of the pigs were spared from DMHC induction and served as age-matched, non-DMHC normal controls. Twenty four weeks after acclimation, animals were euthanized and their brains and eyes were immediately removed. Brains were divided anteroposteriorly into anterior, middle and posterior regions. For each of these brain regions, 2-3 tissue blocks were generated for routine tissue fixation (10% formalin) or freezing and histological processing. The anterior cortical region comprised of anterior ⅔ of frontal lobe and anterior ⅓ of temporal lobe. […] Extravasated IgG was detected using biotinylated anti-swine IgG antibody (Vector laboratories, Inc., Catalogue # BA-9020; dilution 1:100). […] Slides were examined and photographed with a Nikon FXA microscope, and digital images were recorded using a Nikon DXM1200F digital camera and analyzed using MATLAB (MathWorks, Mass., USA) and NIS-elements software (Nikon, Melville, N.Y.). […] The percentage of IgG-positive ganglion cells relative to total ganglion cells in the GCL was calculated. […]

BBB = BBB permeability, IgG binding and Aβ42 deposition in cerebral cortex, animal model of DM and hypercholesterolemia; assay type: in vivo

Compound: CCN(CC)CCN(Cc1ccc(-c2ccc(C(F)(F)F)cc2)cc1)C(=O)Cn1c(SCc2ccc(F)cc2)nc(=O)c2c1CCC2 [Darapladib]
- cell number (nuclei) in GCL (porcine retina): comparable to controls
- cell number (nuclei) in INL (porcine retina): comparable to controls
- plasma and IgG influx into retinal layers [1]: curtailed plasma and IgG influx into retinal layers
- percentage of IgG-positive ganglion cells relative to total ganglion cells in the GCL ([1]; rank among treatment groups, FIG. 4D): followed by untreated controls and then the DMHC-Darapladib group
- Aβ42 deposition in cortical pyramidal neurons (BBB): reverse
- BBB permeability (BBB): reverse
- IgG binding in cortical pyramidal neurons (BBB): reverse
